The values that follow come from patent US11649431B2, “Cortical interneurons and other neuronal cells produced by the directed differentiation of pluripotent and multipotent cells” (MEMORIAL SLOAN-KETTERING CANCER CENTER, priority 2013, dated 2023).

Experiment [1] has as its system human ESC (WA-09, HES-3) and iPS cells (C72, SeV6). Put plainly: FOXG1 / PAX6 induction during neural differentiation of hPSCs (immunofluorescence quantification). Conditions: for PAX6 expression after addition of Wnt antagonist to dual SMAD inhibition protocol: HES-3 (NKX2.1::GFP) line, FIG. 1C; for FOXG1 expression in LSB-treated cultures: Wnt antagonist added to LSB dual SMAD inhibition, XAV939 2 μM, DKK1 250 ng/ml. The format is cell-based. The text has this: Human ESC (lines WA-09, HES-3 (NKX2.1::GFP) and iPS cells (C72, SeV6) were maintained on mouse embryonic fibroblasts (MEFs) as described previously and dissociated with Accutase (Innovative Cell Technologies) for differentiation or dispase for passaging (Chambers et al., Nat Biotechnol 27:275-280 (2009)). Media used for differentiation included KSR-medium, N2 medium (DMEM/F12 with NaHCO3, N2B supplement (Stem Cell Technologies), and Neurobasal media with B27 (Gibco) and N2 supplements (Invitrogen) as described previously. Kriks et al., Nature 480:547-551 (2011). The small molecules compounds used included: XAV939 (2 μM; Stemgent), LDN193189 (100 nM; Stemgent), SB431542 (10 μM; Tocris), and Purmorphamine (1-2 μM; Calbiochem), ascorbic acid (200 μM) and dibutyryl-cyclic AMP (dbcAMP, 200 μM; both from Sigma). Recombinant growth factors: SHH (C25II; 50-500 ng/ml), Noggin (125 ng/ml), DKK1 (250 ng/ml), and BDNF (10 ng/ml) were purchased from R&D Systems or for FGF2 (10 ng/ml) from Promega and used at the concentrations indicated in the manuscript.
Cultures were fixed in 4% paraformaldehyde in phospate-buffered saline and processed for immunofluorescent staining and confocal microscopy. Secondary antibodies used for primary antibody detection were species-specific Alexa-dye conjugates (Invitrogen). For primary antibodies, we used antibodies to rabbit FOXG1 (gift from Eseng Lai); mouse PAX6 (DSHB); mouse NKX2.1 (Labvision); goat NKX2.1 (C-20, Santa Cruz); rabbit OLIG2 (Chemicon); goat FOXA2 (Santa Cruz); rabbit LHX6 (Abeam); mouse RAX (Abnova); rabbit GAPDH (Thermo Scientific); goat DCX (Santa Cruz); mouse TUJ1 (Covance); rabbit GABA (Sigma); mouse Nestin (Thermo Scientific); rabbit KI67 (Labvision); mouse KI67 (Dako); rabbit Calbindin (Chemicon); mouse Calretinin (Swant); chick GFP (Abeam); goat Chat (Chemicon); rat somatostatin (Chemicon); mouse TH (Abeam); rabbit NOS (Swant); mouse Parvalbumin (Chemicon); mouse PSD-95 (Zymed); guinea-pig VGLUT1 (Synaptic systems); rabbit VGAT (Synaptic systems); and mouse Gephyrin (Synaptic Systems).
FOXG1 and PAX6 quantification: Using a 20× objective, 25 fields were imaged from 3 wells and from 4 independent differentiation studies. The number of DAPI+ nuclei was used as the denominator and either FOXG1+ nuclei or PAX6+ nuclei were used for the numerator. NKX2.1::GFP co-labeling: Using a 20× objective, 25-30 fields were imaged from 4 wells from 4 independent differentiations. The number of NKX2.1::GFP+ cells was used as the denominator and the numerator chosen for each analyzed marker. As a control for each marker, secondary antibody in the absence of primary antibody was used as a negative control to designate signal specificity.

Experiment [2] concerns colon carcinoma cell line DLD-1. The following applies: catenin-dependent colon carcinoma cell line; cited from earlier work.
For another experiment, the system named is SW480 cells. Conditions: cited from earlier work.
Another experiment has as its system motor neurons (MNs). The following applies: trophic factors removed, 72 hr; cited from earlier work.

With `Oc1nc(-c2ccc(C(F)(F)F)cc2)nc2c1CSCC2` [XAV939, 3,5,7,8-Tetrahydro-2-[4-(trifluoromethyl)phenyl]-4H-thiopyrano[4,3-d]pyrimidin-4-one], the “effect on FOXG1 induction across independent hESC (HES-3, WA-09) and human iPSC lines (C72, SeV6)” value in experiment [1] (FIG. 1E) was “consistent”. Besides, in experiment [1], the “PAX6 expression after addition of Wnt antagonist to dual SMAD inhibition protocol” value was “did not result in a loss” and the “FOXG1 expression in LSB-treated cultures” value is listed as “greatly enhanced”. Moreover, in experiment [2], the “proliferation of DLD-1 cells” value is given as “inhibits proliferation”. In the experiment with SW480 cells, the “degradation of β-catenin” value is on record as “promotes the degradation” and the “protein levels of the axin-GSK3β complex” value is reported as “increases”.
As for `O=C1Cc2c([nH]c3ccc(Br)cc23)-c2ccccc2N1` [kenpaullone], the “healthy survival of MNs” value in the experiment on motor neurons (MNs) is reported as “impressive ability to prolong”.

B1: DKK1: recombinant DKK1 (Dickkopf protein 1), inhibitor of canonical Wnt signaling (protein, UniProt O94907 32-266, looked up)
Dickkopf-related protein 1: TLNSVLNSNAIKNLPPPLGGAAGHPGSAVSAAPGILYPGGNKYQTIDNYQPYPCAEDEECGTDEYCASPTRGGDAGVQICLACRKRRKRCMRHAMCCPGNYCKNGICVSSDQNHFRGEIEETITESFGNDHSTLDGYSRRTTLSSKMYHTKGQEGSVCLRSSDCASGLCCARHFWSKICKPVLKEGQVCTKHRRKGSHGLEIFQRCYCGEGLSCRIQKDHHQASNSSRLHTCQRH
In the case of B1, in experiment [1], the “PAX6 expression after addition of Wnt antagonist to dual SMAD inhibition protocol” value is “did not result in a loss” and the “FOXG1 expression in LSB-treated cultures” value is given as “greatly enhanced”.
